According to patent US11795190B2, “D-glycero-B-D-heptose 1-phosphate (HMP) conjugates and use for targeted immune modulation” (NATIONAL RESEARCH COUNCIL OF CANADA, priority 2017, dated 2023):

Test system: human colonic epithelial cells (HCT 116), wild type
Test: IL-8 ELISA in wild type HCT 116 cells after digitonin-permeabilised stimulation
Format: cell-based
Details: FIG. 11; WT HCT 116; 10, 30 or 50 μg/mL, digitonin 20 min, IL-8 after 6 hours
Description: Wild type (WT) or TIFA knockout (TIFA KO) cells were treated with compounds in the presence of digitonin for 20 min, treatment was removed, cells were washed and then cultured in normal medium without the synthetic compounds for 6 hr before IL-8 levels in culture supernatants were measured by ELISA. (A) Cells were treated with water or 10 μg/mL of the indicated compound. Data are means±standard error mean of technical triplicates. (B) Cells were treated with the NOD1 agonist C12-iE-DAP (39.8 μM) or with two different molar concentrations of compounds (30 μM or 150 μM). Two batches of dd-β-HBP and dd-β-HMP synthesized independently of one another were tested (batch #1 and batch #2) to assess consistency of the chemical synthesis. Data are means±standard error mean of two (150 μM treatment) or three (all other treatments) independent experiments. Nod1 agonist: C12-iE-DAP (20 μg/ml, 39.8 μM); JS-12: D-glycero-D-manno-heptose; JS-2: D-glycero-D-manno-heptose 7-phosphate; JS-7:D-glycero-β-D-manno-heptose-phosphate; JS-8: d-glycero-α-d-manno-heptose-phosphate; JS-9: β-d-mannose phosphate; JS-6:d-glycero-β-d-manno heptose 1,7-biphosphate; JS-5: d-glycero-α-d-manno heptose 1,7-biphosphate.
FIG. 11. Stimulation of human colonic epithelial cells by compounds/products according to the invention. Human colonic epithelial cells (HCT 116) that were either wild type (WT) or deficient in TIFA protein expression (knockout, KO) were stimulated for 20 minutes in permeabilization buffer (5 μg/mL digitonin) in the presence of water or 10 μg/mL, 30 μg/mL, or 50 μg/mL of indicated synthetic compounds according to the invention. Treatment was removed, cells were washed, and cells were incubated for 6 hours in complete media before IL-8 levels in culture supernatants was measured by ELISA. The results are the mean±standard error of the mean of three technical replicates. JS-10: 7-O-(Aminoethyl)-D-glycero-β-D-manno-heptopyranose phosphate; JS-11: 7-O-(Aminoethyl) -D-glycero-D-manno-heptopyranose; JS-12: D-glycero-D-manno-heptose; Js-13: pH-Rhodo -7-O-(aminoethyl)-D-glycero-β-D-manno-heptopyranose phosphate.
FIG. 13. […] Treatment was removed, cells were washed, and cells were incubated for 6 hours in complete media before IL-8 levels in culture supernatants were measured by ELISA. The results are the mean±standard error of the mean of two (150 μM treatment) or three (all other treatments) independent experiments. #=none detected, JS-10: 7-O-(Aminoethyl)-d-glycero-β-d-manno-heptopyranose phosphate; JS-14: Biotin-7-O-(aminoethyl)-d-glycero-β-d-manno-heptopyranose phosphate, Nod1 agonist: C12-iE-DAP (20 μg/ml, 39.8 μM).
FIG. 16. […] Treatment was removed, cells were washed, and cells were incubated for 6 hours in complete media before IL-8 levels in culture supernatants were measured by ELISA. […]

## NCCOC[C@@H](O)C1O[C@@H](OP(=O)([O-])[O-])C(O)[C@@H](O)[C@@H]1O.[Na+].[Na+] (stereo partly drawn) [JS-10a, 7-O-(Aminoethyl)-D-glycero-β-D-manno-heptopyranose phosphate]
  inflammatory response (IL-8 in culture supernatant): modest inflammatory response
